Measurements from publication PMC10247784, “Physiological activation of human and mouse bitter taste receptors by bile acids” (Communications Biology, 2023).

Target: T1, mouse Tas2r144 (Mus musculus, UniProt Q7TQB8)
T1 construct: expressed in transfected cells; host or cells: HEK293T-Gα16gust44
Assay: Calcium imaging assay (FLIPR), HEK293T-Gα16gust44 cells transfected with mouse Tas2r144
Assay type: cell-based
Description: This set of bile acids was chosen because of their commercial availability in high purities, their diversity within the class of bile acids and their previous detection and quantitation in human blood. Stock solutions were prepared in DMSO.
As basal growth medium for the HEK293T-Gα16gust44 cell line[17],[59] served Dulbecco’s modified eagle medium (DMEM) (Thermo Fisher Scientific, Darmstadt, Germany) supplemented with 10 % fetal bovine serum (Sigma-Aldrich, Steinheim, Germany), 2 mM L-glutamine (Sigma-Aldrich, Steinheim, Germany), 100 units/ml penicillin (Sigma Aldrich, Steinheim, Germany) and 100 µg/ml streptomycin (Sigma Aldrich, Steinheim, Germany). Growth conditions were 37 °C, 5 % CO2 and saturated air-humidity[60].
HEK293T-Gα16gust44 cells were seeded on poly-D-lysine (10 µg/ml) coated 96-well plates to reach a confluence of 40-60 % the next day. For transient transfection 150 ng of plasmid DNA containing the receptor of interest and 0.3 µl lipofectamine 2000 (Thermo Fisher Scientific, Darmstadt, Germany) per well were used and transfection took place according to the manual of lipofectamine 2000. […] The empty vector DNA (mock) was transfected as negative control[14],[41].
Cells were loaded using the calcium-sensitive fluorescent dye Fluo-4-AM (Abcam, Cambridge, Great Britain) in the presence of 2.5 mM probenecid (Sigma-Aldrich, Steinheim, Germany) the day after transfection[13],[41]. 1 h after loading, cells were washed with C1 buffer using a BioTek Cell Washer, incubated in the dark for half an hour and washed again. For automated agonist application and measurement of fluorescence changes, a FLIPR^TETRA device (Molecular Devices, San José, United States) was used. Viability of cells was tested by application of 100 nM Somatostatin 14 (Bachem, Bubendorf, Switzerland)[42].
Measured data were negative control corrected by subtracting the signal of the mock-transfected cells and exported to Microsoft Excel using the FLIPR software ScreenWorks 4.2. In Microsoft Excel software, standardization of maximum fluorescence intensities to the basal fluorescence and normalization to the buffer-only control was done to calculate the relative fluorescence changes (ΔF/F).
Initial screening experiments performed in duplicate wells were confirmed by at least one replication and representative traces were selected for display. All dose-response relationships were determined by three independent experiments (biological replicates) performed in duplicates (technical replicates). Threshold concentrations, defined as lowest substance concentrations leading to statistically significant elevated fluorescence changes in receptor-transfected cells compared with empty vector-transfected cells, were determined using SigmaPlot with Student’s t-test to evaluate statistical significance (p < 0.01).

T1 sequence (Q7TQB8 whole entry): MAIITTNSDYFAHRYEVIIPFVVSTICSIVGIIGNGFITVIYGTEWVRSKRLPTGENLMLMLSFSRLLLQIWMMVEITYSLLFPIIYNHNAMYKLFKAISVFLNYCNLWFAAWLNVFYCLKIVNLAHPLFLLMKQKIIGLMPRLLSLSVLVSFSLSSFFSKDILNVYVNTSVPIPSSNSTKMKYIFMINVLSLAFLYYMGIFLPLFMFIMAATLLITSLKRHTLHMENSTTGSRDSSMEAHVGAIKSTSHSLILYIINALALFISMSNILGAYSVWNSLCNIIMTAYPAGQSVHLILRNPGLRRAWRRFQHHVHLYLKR

C[C@H](CCC(=O)O)[C@H]1CC[C@H]2[C@@H]3[C@H](O)C[C@@H]4C[C@H](O)CC[C@]4(C)[C@H]3C[C@H](O)[C@]12C [Cholic Acid, cholic acid]
RLU (Time 0 s): 0 RLU
RLU (Time 2 s): 0.2042 RLU
RLU (Time 4 s): 5.384 RLU
RLU (Time 6 s): -45.6095 RLU
RLU (Time 8 s): 13.5839 RLU
RLU (Time 12 s): 34.8706 RLU
RLU (Time 14 s): 52.0817 RLU
RLU (Time 16 s): 11.4185 RLU
RLU (Time 18 s): 29.9569 RLU
RLU (Time 18.781 s): 46.048 RLU
RLU (Time 20.781 s): 112.965 RLU
RLU (Time 22.781 s): 165.689 RLU
RLU (Time 24.781 s): 205.772 RLU
RLU (Time 26.781 s): 242.163 RLU
RLU (Time 28.781 s): 320.656 RLU
RLU (Time 30.781 s): 367.762 RLU
RLU (Time 32.781 s): 422.903 RLU
RLU (Time 34.781 s): 499.119 RLU
RLU (Time 36.781 s): 524.9 RLU
RLU (Time 38.781 s): 565.569 RLU
RLU (Time 40.781 s): 583.905 RLU
RLU (Time 42.781 s): 606.644 RLU
RLU (Time 44.781 s): 633.066 RLU
RLU (Time 46.781 s): 639.921 RLU
RLU (Time 48.781 s): 638.534 RLU
RLU (Time 50.781 s): 641.518 RLU
RLU (Time 52.781 s): 632.385 RLU
RLU (Time 54.781 s): 644.317 RLU
RLU (Time 56.781 s): 655.573 RLU
RLU (Time 58.781 s): 678.513 RLU
RLU (Time 60.781 s): 666.775 RLU
RLU (Time 62.781 s): 667.745 RLU
RLU (Time 64.781 s): 637 RLU
RLU (Time 66.781 s): 647.88 RLU
RLU (Time 68.781 s): 635.725 RLU
RLU (Time 70.781 s): 644.081 RLU
RLU (Time 72.781 s): 655.408 RLU
RLU (Time 74.781 s): 647.263 RLU
RLU (Time 76.781 s): 633.033 RLU
RLU (Time 78.781 s): 631.561 RLU
RLU (Time 80.781 s): 620.522 RLU
RLU (Time 82.781 s): 627.467 RLU
RLU (Time 84.781 s): 627.103 RLU
RLU (Time 86.781 s): 578.642 RLU
RLU (Time 88.781 s): 568.631 RLU
RLU (Time 90.781 s): 548.759 RLU
RLU (Time 92.781 s): 576.256 RLU
RLU (Time 94.781 s): 543.082 RLU
RLU (Time 96.781 s): 562.136 RLU
RLU (Time 98.781 s): 521.114 RLU
RLU (Time 100.781 s): 533.293 RLU
RLU (Time 102.781 s): 509.746 RLU
RLU (Time 104.781 s): 492.298 RLU
RLU (Time 106.781 s): 485.694 RLU
RLU (Time 108.781 s): 481.982 RLU
RLU (Time 110.781 s): 458.143 RLU
RLU (Time 112.781 s): 439.768 RLU
RLU (Time 114.781 s): 433.077 RLU
RLU (Time 116.781 s): 415.823 RLU
RLU (Time 118.781 s): 408.859 RLU
RLU (Time 120.781 s): 392.039 RLU
RLU (Time 122.781 s): 431.314 RLU
RLU (Time 124.781 s): 392.828 RLU
RLU (Time 126.781 s): 373.554 RLU
RLU (Time 128.781 s): 347.376 RLU
RLU (Time 130.781 s): 337.354 RLU
RLU (Time 132.781 s): 314.537 RLU
RLU (Time 134.781 s): 326.444 RLU
RLU (Time 136.781 s): 292.52 RLU
RLU (Time 137.562 s): 313.513 RLU
RLU (Time 143.562 s): 250.659 RLU
RLU (Time 149.562 s): 229.584 RLU
RLU (Time 155.562 s): 203.982 RLU
RLU (Time 161.562 s): 211.817 RLU
RLU (Time 167.562 s): 206.485 RLU
RLU (Time 173.562 s): 171.281 RLU
RLU (Time 179.562 s): 153.445 RLU
RLU (Time 185.562 s): 144.359 RLU
RLU (Time 191.562 s): 143.458 RLU
RLU (Time 197.562 s): 135.182 RLU
RLU (Time 203.562 s): 115.034 RLU
RLU (Time 209.562 s): 107.877 RLU
RLU (Time 215.562 s): 83.8781 RLU
RLU (Time 221.562 s): 20.807 RLU
RLU (Time 227.562 s): 27.2515 RLU
RLU (Time 233.562 s): -2.456 RLU
RLU (Time 239.562 s): 17.5402 RLU
RLU (Time 245.562 s): -0.008323 RLU
RLU (Time 293.562 s): 2 RLU
RLU (Time 299.562 s): -5.681 RLU
RLU (Time 305.562 s): 20.6398 RLU
RLU (Time 311.562 s): 25.3808 RLU
RLU (Time 317.562 s): 16.3914 RLU
RLU (Time 323.562 s): 41.1546 RLU
RLU (Time 329.562 s): -2.456 RLU
RLU (Time 335.562 s): 34.2464 RLU
RLU (Time 341.562 s): 21.8644 RLU
RLU (Time 347.562 s): 15.2738 RLU
RLU (Time 353.562 s): 29.9395 RLU
RLU (Time 359.562 s): 27.2515 RLU
Activation threshold concentration Tas2r144 (p < 0.01 vs empty vector): 100 µM
